This is an account of results in publication PMC3644566 (Journal of chemical information and modeling, 2013).

Molecules are shown by their SMILES.

Assay [1] has as its system P. falciparum 3D7 or K1 strains. Put plainly: P. falciparum growth inhibition assays of VS hits. The class given is cell-based, Plasmodium falciparum. As to conditions: against either 3D7 or K1 strains, most potent VS hit.
Assay [2] has as its system P. falciparum 3D7 strain. Put plainly: P. falciparum growth inhibition assay. In kind it is cell-based. Particulars: Plasmodium falciparum, 3D7, 72 h, read-out: consensus EC50.

A word on the EC50: it is the concentration that produces a half-maximal response. Turning to `C=CC1CN2CCC1CC2C(OC(=O)C1CC1)c1ccnc2ccccc12` (stereo not drawn) [SJ000565000], in assay [1], the EC50 amounted to 95.6 nM.

In the case of `OC(c1cc(C(F)(F)F)nc2c(C(F)(F)F)cccc12)C1CCCCN1` (stereo not drawn) [mefloquine], in assay [2], the EC50 is 39.8 nM.

For the compound `CCN(CC)CCCC(C)Nc1ccnc2cc(Cl)ccc12` (stereo not drawn) [chloroquine], the concentration for a half-maximal effect (EC50) in assay [2] is 26.8 nM.
